Converted amounts (≈) assume the structure as drawn. “Also recorded” adds a separate entry of the source. Where a SMILES comes first, the peptide text is derived from it. Bridges are numbered along the chain shown (N, C = ends). [ ]: non-standard residue; d: D form. The star is where a group is joined. Decanoyl(3R-OH) = CCCCCCC[C@@H](O)CC(=O)*; dDab = NCC[C@@H](N)C(=O)O; Dab = NCC[C@H](N)C(=O)O
Assays:
[1] = system: capsule-induced or -suppressed C. neoformans H99 cells; experiment: In vitro time course assay of capsule influence; type: cell-based, Cryptococcus neoformans; details: H99; PMB at 12.5 μM, octapeptin C4 at 1.56 μM; 0-8 h; two replicates
Method: (A) C. neoformans grown on capsule inducing RPMI 1640 agar medium (without L-glutamine and sodium bicarbonate) with incubation at 37°C in 5% CO2 for 3 days. Scale bar, 20 μm. (B) C. neoformans grown on capsule-suppressing media, YPD containing 1 M NaCl at 30°C in ambient air for 3 days. […] The data represent the means of two replicates, and the error bars represent the standard errors of the mean (SEM).
Capsule induction of strain H99 was achieved as described by Zhai et al. ([37]) with growth on RPMI 1640 (without L-glutamine and sodium bicarbonate) (Sigma, Australia) agar medium and incubation at 37°C in 5% CO2 and capsule suppression by growth on YPD containing 1 M NaCl at 30°C in ambient air. After 3 days, the cells from each culture were collected, washed twice with phosphate-buffered saline (PBS), and resuspended in PBS to avoid changes in the capsule at a density of 1,500 to 2,000 cells/ml. Cell suspensions were treated with test compounds at the determined MIC value. The compounds tested were PMB sulfate, octapeptin C4, and the octapeptin C4 alanine scan derivatives P1L, P1D, P4, P3, P4L, P4D, P5, P6, P7, and P8. At 0, 1, 2, 4, 6, and 8 h after inoculation, samples from each treatment were spread onto a YPD plate, followed by incubation at 30°C for 3 days, at which time the colonies were counted. The assay was repeated in duplicate, and paired sample t tests were performed using GraphPad Prism v7.0 (GraphPad Software, USA).

[2] = system: C. gattii MMRL 2651; details: 72 h
Method: (§1) A broth microdilution assay was initially used to characterize the antifungal activity of the cyclic lipopeptides ([39], [40]). […] common pathogenic yeasts (C. albicans, C. glabrata, C. parapsilosis, C. neoformans, and C. gattii) and one pathogenic mold (A. fumigatus) were tested to determine the MIC for each compound (Table 1) using broth microdilution. […] The only structural difference between these molecules is the presence of a phenylalanine residue at position 6 in PMB; in PME a D-leucine is present at this location (Fig. 1).
(§2) Fungal strains were stored in 15% glycerol at −80°C until use. The fungal strains used were H99 (C. neoformans type strain) ([55]), cap59Δ (an acapsular H99 mutant) ([56]), ATCC 90113 (C. neoformans), MMRL 2651 (C. gattii), ATCC 90028 (Candida albicans), ATCC 90030 (Candida glabrata), ATCC 22019 (Candida parapsilosis), and ATCC MYA 3626 (Aspergillus fumigatus). Yeasts were cultured in liquid (1% yeast extract, 2% Bacto peptone, 2% glucose) or solid (additional 2% agar) yeast extract-peptone-dextrose (YPD) media at 30°C and maintained at 4°C for no longer than 2 weeks. A. fumigatus was prepared on potato dextrose medium at 30°C and maintained at 4°C for no longer than 2 weeks.
(§3) The MICs of the yeast strains for PMB, PME, and octapeptin C4 and its derivatives were determined in accordance with CLSI M27-A2 guidelines using YNB (Becton Dickinson, USA) medium supplemented with 10 mM ammonium sulfate and 2% glucose, a final inoculum concentration of 1.5 × 10^3 to 2.0 × 10^3 cells/ml, and incubation at 35°C for 72 h ([39]). […] The MICs for PMB, PME, and octapeptin C4 for A. fumigatus were determined in accordance with the CLSI M38-A2 guidelines ([40]) using synthetic RPMI 1640 medium (with glutamine, without bicarbonate and with phenol red; Life Technologies, USA). The final inoculum concentration was 0.4 × 10^4 to 5 × 10^4 cells/ml, with incubation at 35°C for 48 h. […] All assays were completed in triplicate. Fluconazole was used as a positive control where the MIC was determined at both 50% growth (in accordance with CLSI M27-A2 guidelines) and when there was a “no visible growth” reading.

[3] = system: C. neoformans H99
Method: as §1, §2, §3

[4] = system: C. neoformans ATCC 90113; details: ATCC 90113, 72 h
Method: as §1, §2, §3

[5] = system: C. neoformans H99 (cap59Δ); type: cell-based, Cryptococcus neoformans; details: triplicate
Excerpt: The different susceptibility of C. neoformans and C. gattii to PMB compared to other pathogenic fungi such as C. albicans and A. fumigatus has been postulated to arise from differences in cell surface composition ([38]). One key difference is the presence of a negatively charged polysaccharide capsule in Cryptococcus spp. proposed to concentrate the cationic lipopeptides at the cell surface ([38]). To examine this potential interaction for the octapeptin series, a C. neoformans cap59Δ mutant strain deficient in the secretion of negatively charged glucuronoxylomannan (an α1–3-linked mannan containing β1,2 and β1,4 xylosyl substitutions, as well as β1,2-linked glucuronyl residues) ([41], [42]), was tested against octapeptin C4 in comparison to PMB.
as §2, §3

SMILES: CCCCCCC[C@@H](O)CC(=O)N[C@H](CCN)C(=O)N[C@H]1CCNC(=O)[C@H](CC(C)C)NC(=O)[C@H](CCN)NC(=O)[C@H](CCN)NC(=O)[C@H](CC(C)C)NC(=O)[C@@H](Cc2ccccc2)NC(=O)[C@H](CCN)NC1=O [Octapeptin C4, octapeptin C4] ({Decanoyl(3R-OH)}-[dDab][Dab][Dab][dF]L[Dab][Dab]L; lactam 2-C (inferred); N-terminus assumed)
- effect of capsule formation on fungicidal activity [1]: retarded the fungicidal activity; also recorded: small but statistically significant increase in survival
- MIC C. gattii [2]: 3.13 µg/mL (≈ 3 µM)
- MICs against various Cryptococcus strains: MMRL 2651 [2]: 3.13 µg/mL
- MIC C. neoformans H99 ([3]; H99, 72 h): 1.56 µg/mL (≈ 1.49 µM)
- MICs against various Cryptococcus strains: H99 ([3]; H99, 72 h): 1.56 µg/mL
- fold more potent than PMB ([3]; by MIC against C. neoformans): ~8 fold
- fold more potent than PME ([3]; by MIC against C. neoformans): > 60 fold
- MIC C. neoformans ATCC 90113 [4]: 1.56 µg/mL (≈ 1.49 µM)
- MICs against various Cryptococcus strains: ATCC 90113 [4]: 1.56 µg/mL
- MIC C. neoformans H99 (cap59Δ) ([5]; Table 1, CLSI M27-A2, YNB medium, 35°C, no visible growth after 72 h): 6.25 µg/mL (≈ 5.98 µM)
- MICs against various Cryptococcus strains: H99 (cap59Δ) ([5]; Table 2, values consistent across replicates): 6.25 µg/mL

Source: PMC5786788, “Antimicrobial Octapeptin C4 Analogues Active against Cryptococcus Species” (Antimicrobial Agents and Chemotherapy, 2018)
